These results are taken from patent US10456451B2, “Protease-resistant mutants of stromal cell derived factor-1 in the repair of tissue damage” (Mesoblast International Sàrl, priority 2010, dated 2019).

Test [1] has as its system Jurkat T-lymphocytic cells. Nature of the test: Jurkat T-lymphocyte migration (chemotaxis) assay. The class given is cell-based. To be noted: for Jurkat Chemotaxis EC50 / EC50: Jurkat cells, 3 hours migration; for activity in Jurkat cell migration assay / activity of C-terminal variant relative to SDF-1 and SSDF-1: result in words; for activity of C-terminal variant relative to SDF-1 and SSDF-1: Jurkat migration, CXCR4 cAMP and CXCR β-arrestin assays. The procedure:
Jurkat cells were labeled with Calcein-AM (1 μM) for 60 minutes at 37° C., washed twice and resuspended in RPMI without phenol red to a final density of 4,000,000 cells/ml. […] Cells were allowed to migrate for 3 hours, and cells in lower wells were washed once with PBS. Fluorescence in lower wells was measured at 485 nm excitation and 535 nm emission wavelengths with a Victor Wallace II plate reader. A standard curve was constructed for each experiment to normalize fluorescence to the number of cells.

A further test has as its target CXCR7 (Homo sapiens, UniProt P25106). Description: CXCR7 β-arrestin recruitment assay (PathHunter). The class given is cell-based. Here is the method: PathHunter β-arrestin assays were performed following the instructions of the manufacturer (DiscoveRx). Briefly, PathHunter cell lines stably expressing both a β-arrestin-Enzyme Acceptor of β-galactosidase fusion and one of the chemokine receptors fused with the ProLink donor peptide of […] were employed. Upon CXCR stimulation, β-arrestin is recruited to the receptor for desensitization, bringing the two fragments (the Enzyme Acceptor and the ProLink) of β-galactosidase together. This generates an active β-galactosidase enzyme that can convert a substrate to a chemiluminescent product. Cells were seeded at a density of 5000 cells/well in a 384-well plate and were allowed to adhere overnight. […] After incubation, chemiluminescent signal was generated through addition of 12.5 μl (50% v/v) of PathHunter Detection reagent cocktail (DiscoveRx) followed by a 1-hour incubation at room temperature. Microplates were read with a PerkinElmer ViewLux instrument.

In a further test the target is CXCR4 (Homo sapiens, UniProt P61073). Description: CXCR4 cAMP receptor activation assay (CHO-K1 cells expressing CXCR4). Type of test: cell-based. Set-up: host or cells: CHO-K1. Particulars: decrease in cAMP by Gαi activation, forskolin at EC80. Here is the method: For the CXCR4 cAMP assay, CHO-K1 cells stably expressing the CXCR4 receptor (DiscoveRx, Fremont, Calif.) were seeded at a density of 10,000 cells/well in a 384-well plate and were allowed to recover overnight. A decrease in cAMP by CXCR4-induced Gαi activation was determined using the DiscoveRx HitHunter cAMP XS+assay following the manufacturer's protocol. […] Chemiluminescence was read with a PerkinElmer ViewLux instrument.
Chain of CXCR4 (P61073 whole entry): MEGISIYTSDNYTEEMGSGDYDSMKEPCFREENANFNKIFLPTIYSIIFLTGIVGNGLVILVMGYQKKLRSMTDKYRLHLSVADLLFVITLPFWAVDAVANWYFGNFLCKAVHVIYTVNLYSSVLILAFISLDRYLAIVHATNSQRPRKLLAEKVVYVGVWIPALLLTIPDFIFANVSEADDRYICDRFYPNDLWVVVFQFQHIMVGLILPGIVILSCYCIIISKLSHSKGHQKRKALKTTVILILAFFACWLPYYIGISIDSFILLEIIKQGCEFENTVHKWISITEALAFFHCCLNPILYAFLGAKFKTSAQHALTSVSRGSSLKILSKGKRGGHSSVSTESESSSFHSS

The next test concerns the target T1, MMP-2 (Homo sapiens, UniProt P08253).
T1 construct: purchased R&D Systems
T1 sequence (P08253 110-660): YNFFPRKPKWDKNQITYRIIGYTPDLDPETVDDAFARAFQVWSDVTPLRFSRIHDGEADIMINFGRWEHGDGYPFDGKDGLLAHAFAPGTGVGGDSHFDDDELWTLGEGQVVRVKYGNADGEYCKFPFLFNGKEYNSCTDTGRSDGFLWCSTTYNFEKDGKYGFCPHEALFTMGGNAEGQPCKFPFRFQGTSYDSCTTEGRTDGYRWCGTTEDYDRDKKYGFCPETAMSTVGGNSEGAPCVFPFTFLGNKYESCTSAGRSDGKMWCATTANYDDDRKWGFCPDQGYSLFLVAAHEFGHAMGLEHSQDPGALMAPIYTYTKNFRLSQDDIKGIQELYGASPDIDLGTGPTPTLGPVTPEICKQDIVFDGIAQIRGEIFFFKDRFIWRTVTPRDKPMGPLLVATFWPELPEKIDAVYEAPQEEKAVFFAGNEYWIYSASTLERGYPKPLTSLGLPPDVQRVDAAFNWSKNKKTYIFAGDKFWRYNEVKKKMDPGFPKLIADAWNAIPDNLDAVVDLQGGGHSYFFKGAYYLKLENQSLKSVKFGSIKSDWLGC
Nature of the test: MMP-2 cleavage of FRET-based N-terminal 8 amino acid peptides. The class given is biochemical. To be noted: for amount of peptide cleaved by MMP-2: after 4 hours, n=4; for initial cleavage rate by MMP-2: calculated 60 minutes after addition of MMP-2, n=4. Here is the method: All peptides were synthesized with a fluorescent 7-methoxycoumarin-3-carboxylic acid (MCA) residue at the N-terminus and a quencher lysine-dinitrophenol (Dpn) residue at the C-terminus. […] Enzymatic cleavage of these peptides separated MCA from Dpn, resulting in an increased fluorescence. Peptides (10 μM) were then incubated with activated MMP-2 (Table 1), leukocyte elastase (Table 2), or cathepsin G (Table 3) (1.4 nM) in TNCB buffer (50 mM Tris, pH 7.5, with 10 mM calcium chloride, 150 mM sodium chloride, and 0.05% BRIJ 35) or phosphate-buffered saline (PBS) at 21° C. Fluorescence was measured at 340 nm excitation and 405 nm emission wavelengths at different time points with a Victor Wallace II plate reader.
Human recombinant MMP-2 (R&D Systems) was activated for 1 hour with 4-aminophenylmercuric acetate (APMA, 1 mM) at 37° C. 4 μg of Sumo-SSDF-1-RAD or Sumo-SSDF-1(S4V)-RAD was incubated for 1 hour to 48 hours at 21° C. with 50 ng of activated MMP-2 in TCNB buffer (50 mM Tris, pH 7.5, 10 mM CaCl2, 150 mM NaCl, 0.05% Brij-35). Sample loading buffer (Invitrogen) and 2-mercaptoethanol (0.5 M, final concentration) were added, and samples were boiled for 5 minutes and run on a 10% Bis-Tris gel. Proteins used for this experiment were obtained after cation-exchange chromatography, but were neither cleaved by Sumo-protease nor purified by RPC-HPLC.

The subject of test [2] is ischemic hindlimb blood flow. Nature of the test: Hindlimb ischemia model, laser Doppler blood flow. Type of test: in vivo, C57BL/6 mice. Particulars: without nanofibers. The procedure:
All animal protocols were approved by the institutional IACUC and performed in an AAALAC certified facility. Studies were performed blinded and randomized. Hindlimb ischemia was produced in male C57BL/6 mice (305 mice total), 8 to 12 weeks old (Jackson Laboratories and Charles River Laboratories). Mice were anesthetized with isoflurane (2-3% in 100% oxygen) and buprenorphin (0.05 mg/kg). Femoral artery was ligated and excised below the inguinal ligament and above the bifurcation of the popliteal artery. Protein and self-assembling peptide nanofibers were injected in the lower hindlimb after excision of the artery. Peptides were dissolved in isotonic sucrose (10%). Post-operative analgesia was provided with buprenorphin (0.05 mg/kg every 6 to 12 hours for 72 hours). The surgeon was blinded to the treatment groups in all studies performed. The first study included 35 animals total (5 animals per group), which received an intramuscular injection in the lower hindlimb with biotin-labeled nanofibers (biotin-RAD, 0.01% in 1% nanofibers hydrogel). Tissues were harvested at seven different time points and nanofibers were stained with Alexa fluor-labeled streptavidin. The second study included 40 animals (10 per group) with four groups: control without injection, nanofibers only, nanofibers+100 nM SSDF-1-RAD, and nanofibers+100 nM SSDF-1(S4V)-RAD. Laser Doppler blood flow measurements were performed with a Moor LDI2-IR (Moor Instruments) 2, 4, and 6 weeks after surgery. At each time point, five measurements (on average) per animal were made, and blood flow in the ischemic limb was normalized to blood flow in normal limb. The third study included 50 animals with four different dosages of SSDF-1(S4V)-RAD; all groups contained nanofibers. All laser Doppler measurements and histology quantifications were made by an operator blinded to the treatment groups.

Values joined by “and” are separate entries in the source; they are usually repeats but may differ in a detail not shown here. Equal entries are not always repeated. * marks the point of attachment. MCA = fluorescent 7-methoxycoumarin-3-carboxylic acid residue, COc1ccc2cc(C(=O)*)c(=O)oc2c1; Dpn = quencher lysine-dinitrophenol residue

Chain of CXCR7 (P25106 whole entry, the tested form may be a part): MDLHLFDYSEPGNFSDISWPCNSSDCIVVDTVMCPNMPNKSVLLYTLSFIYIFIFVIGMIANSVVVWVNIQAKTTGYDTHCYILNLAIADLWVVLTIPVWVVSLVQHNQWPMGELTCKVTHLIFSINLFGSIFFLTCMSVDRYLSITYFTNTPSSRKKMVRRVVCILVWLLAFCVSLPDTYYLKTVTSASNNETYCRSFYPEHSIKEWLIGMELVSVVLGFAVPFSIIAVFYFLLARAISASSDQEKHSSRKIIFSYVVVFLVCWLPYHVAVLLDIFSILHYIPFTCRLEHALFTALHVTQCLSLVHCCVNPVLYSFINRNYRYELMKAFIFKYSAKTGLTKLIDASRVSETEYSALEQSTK

With “SSDF-1 (L5E): SDF-1 with Leu→Glu at position 5 and N-terminal serine”, in test [1], the “Jurkat Chemotaxis EC50” value was “Inactive” and the “activity in Jurkat cell migration assay” value is “inactive”.

In the case of “SSDF-1 (V3C): SDF(V3C) (SEQ ID NO:55) with N-terminal serine”, the results for the EC50 (in test [1]; with CXCR7; with CXCR4) were 15 nM, 14 nM and 0.6 nM, respectively.

Take “SSDF-1 (V3D): SDF-1 with Val→Asp at position 3 and N-terminal serine”: in test [1], the “Jurkat Chemotaxis EC50” value is “Inactive” and the “activity in Jurkat cell migration assay” value is “inactive”.

On to “SSDF-1(S4V)γ: SDF-1γ version of SSDF-1(S4V)”, for which, in test [1], the response was half-maximal at 47 nM (EC50).

For the substance “SSDF-1 (L5T): SDF(L5T) (SEQ ID NO:56) with N-terminal serine”, the EC50 in test [1] amounted to 20 nM; with CXCR7, 8.7 nM; with CXCR4 it was 3.6 nM.

With “SSDF-1 (L5W): SDF-1 with Leu→Trp at position 5 and N-terminal serine”, in test [1], the “Jurkat Chemotaxis EC50” value is recorded as “Inactive” and the “activity in Jurkat cell migration assay” value is “inactive”.

“SSDF-1 (+69S): SSDF-1 with an amino acid residue (serine) added to the C-terminal end”: in test [1], the half-maximal effective concentration (EC50) turned out to be 12 nM; the “activity of C-terminal variant relative to SDF-1 and SSDF-1” value is “retains significant activity”. In test [1] (listed as SSDF-1(+69S)), this substance displayed an EC50 of 2 nM.

Consider “SSDF-1 (V3H): SDF(V3H) (SEQ ID NO:54) with N-terminal serine”, for which the EC50 in test [1] came out at 6.7 nM; with CXCR7 it was 92 nM; in the test with CXCR4 it was 1 nM.

Turning to “SSDF-1 (L5K): SDF-1 with Leu→Lys at position 5 and N-terminal serine”, in test [1], the “Jurkat Chemotaxis EC50” value is “Inactive” and the “activity in Jurkat cell migration assay” value was “inactive”.

With “SSDF-1 (S6C): SDF(S6C) (SEQ ID NO:61) with N-terminal serine”, the figures for the EC50 (in test [1]; with CXCR7; in the test with CXCR4) were 23 nM, 29 nM and 12 nM, respectively.

As to “SSDF-1(S4V)-RADI: Fusion protein of SSDF-1(S4V) and RAD16-I sequence, six glycine linker (SEQ ID NO:75)”, in test [1], the midpoint of the response, the EC50, lay at 18 nM.

With “SSDF-1 (L5P): SDF-1 with Leu→Pro at position 5 (SEQ ID NO:66) and N-terminal serine”, the half-maximal effective concentration (EC50) in test [1] was found to be 120 nM; with CXCR7, 225 nM. Moreover, the “CXCR4 (cAMP) EC50” value with CXCR4 was “Inactive”.

As for “SSDF-1 (V3G): SDF-1 with Val→Gly at position 3 and N-terminal serine”, in test [1], the “Jurkat Chemotaxis EC50” value is given as “Inactive” and the “activity in Jurkat cell migration assay” value is “inactive”.

“SDF-1(S4V)-N-terminal peptide: First 8 amino acids of SDF-1(S4V) (SEQ ID NO:91) with MCA at the N-terminus and quencher Dpn at the C-terminus ({MCA}-KPVVLSYR-Dpn)”: in the test with MMP-2, the “amount of peptide cleaved by MMP-2” value came out at 1 ± 3 pmol and the “initial cleavage rate by MMP-2” value was 0.1±0.1×10^−10 M s^−1.

“KPVSLSYR ({MCA}-KPVSLSYR-Dpn; listed as Homo sapiens) [SDF-1-N-terminal peptide, reference compound]”: in the test with MMP-2, the “amount of peptide cleaved by MMP-2” value stood at 205 ± 18 pmol and the “initial cleavage rate by MMP-2” value was 2.0±0.1×10^−10 M s^−1.

In the case of “SSDF-1 (S6G): SDF(S6G) (SEQ ID NO:62) with N-terminal serine”, the figures for the EC50 (in test [1]; with CXCR7; in the test with CXCR4) were 11 nM, 25 nM and 8.5 nM, respectively.

Turning to “SSDF-1(S4V)(−68K): SSDF-1(S4V) lacking the C-terminal lysine”, in test [1], the EC50 was 10 nM.

Consider “SSDF-1 (L5V): SDF(L5V) (SEQ ID NO:60) with N-terminal serine”, for which the values for the EC50 (in test [1]; with CXCR7; in the test with CXCR4) were 36 nM, 21 nM and 33 nM, respectively.

“SSDF-1 (L5H): SDF-1 with Leu→His at position 5 and N-terminal serine”: in test [1], the “Jurkat Chemotaxis EC50” value is listed as “Inactive” and the “activity in Jurkat cell migration assay” value was “inactive”.

As for “SSDF-1 (−68K): SDF-1 lacking the C-terminal lysine, with N-terminal serine”, in test [1], the response was half-maximal at 2.2 nM (EC50); the “activity of C-terminal variant relative to SDF-1 and SSDF-1” value is on record as “unchanged”. The EC50 in test [1] (listed as SSDF-1(−68K)) came out at 1.3 nM.

Substance “SSDF-1: SDF-1 with a serine residue added at the N-terminus” yielded an EC50 in test [1] of 1.6 nM. Besides, the “blood flow differences between groups” value is “No significant differences in blood flow” in test [2] (fourth study, 1 mg/kg daily IM for first 7 days); “did not show significant differences between groups” in test [2] (separate confirming study, same doses and schedule).

“SSDF-1 (L5D): SDF-1 with Leu→Asp at position 5 and N-terminal serine”: in test [1], the “Jurkat Chemotaxis EC50” value was “Inactive” and the “activity in Jurkat cell migration assay” value was “inactive”.

Regarding “SDF-1: Unmutated SDF-1α, 68 amino acids, SEQ ID NO:52 [reference compound]”, the EC50 in test [1] was 1.5 nM and 1.8 nM.

On to “SSDF-1 (V3P): SDF-1 with Val→Pro at position 3 and N-terminal serine”, for which, in test [1], the “Jurkat Chemotaxis EC50” value is reported as “Inactive” and the “activity in Jurkat cell migration assay” value was “inactive”.
